In ChEMBL document CHEMBL1926636, “Isoxazoles incorporated N-substituted decahydroquinolines: a precursor to the next generation antimicrobial drug” (2012):
Values after ≈ are worked out from the molar mass of the structure shown.

What was measured:
Staphylococcus aureus [1] = test: Antibacterial activity against Staphylococcus aureus ATCC 6538 by twofold serial dilution technique; assay type: functional
[2] = tested on: Lysinibacillus sphaericus; test: Antibacterial activity against Bacillus sphaericus ATCC 7031 by twofold serial dilution technique; assay type: functional
Escherichia coli [3] = test: Antibacterial activity against Escherichia coli ATCC 35218 by twofold serial dilution technique; assay type: functional
Aspergillus fumigatus [4] = test: Antifungal activity against Aspergillus fumigatus ATCC 28212 at 10 ug/mL after 72 hrs by agar cup plate method; assay type: functional; conditions: ATCC 28212, 72 h, read-out: IZ
Candida albicans [5] = test: Antifungal activity against Candida albicans ATCC 90028 by twofold serial dilution technique; assay type: functional
Staphylococcus aureus [6] = test: Antibacterial activity against Staphylococcus aureus ATCC 6538 at 10 ug/mL after 24 hrs by disc diffusion method; assay type: functional; conditions: ATCC 6538, 24 h, read-out: IZ
Candida albicans [7] = test: Antifungal activity against Candida albicans PYCC 3436 by twofold serial dilution technique; assay type: functional
Candida albicans [8] = test: Antifungal activity against Candida albicans ATCC 90028 at 10 ug/mL after 72 hrs by agar cup plate method; assay type: functional; conditions: ATCC 90028, 72 h, read-out: IZ
Aspergillus fumigatus [9] = test: Antifungal activity against Aspergillus fumigatus ATCC 28212 by twofold serial dilution technique; assay type: functional
Salmonella typhi [10] = test: Antibacterial activity against Salmonella typhi ATCC 6539 at 10 ug/mL after 24 hrs by disc diffusion method; assay type: functional, Salmonella enterica subsp. enterica serovar Typhi; conditions: Salmonella enterica, ATCC 6539, 24 h; read-out: IZ
Aspergillus niger [11] = test: Antifungal activity against Aspergillus niger ATCC 16404 at 10 ug/mL after 72 hrs by agar cup plate method; assay type: functional; conditions: ATCC 16404, 72 h, read-out: IZ
Candida albicans [12] = test: Antifungal activity against Candida albicans PYCC 3436 at 10 ug/mL after 72 hrs by agar cup plate method; assay type: functional; conditions: PYCC 3436, 72 h, read-out: IZ
Salmonella typhi [13] = test: Antibacterial activity against Salmonella typhi ATCC 6539 by twofold serial dilution technique; assay type: functional, Salmonella enterica subsp. enterica serovar Typhi; conditions: Salmonella enterica
Escherichia coli [14] = test: Antibacterial activity against Escherichia coli ATCC 35218 at 10 ug/mL after 24 hrs by disc diffusion method; assay type: functional; conditions: ATCC 35218, 24 h, read-out: IZ
Pseudomonas aeruginosa [15] = test: Antibacterial activity against Pseudomonas aeruginosa ATCC 9027 by twofold serial dilution technique; assay type: functional
Bacillus subtilis [16] = test: Antibacterial activity against Bacillus subtilis ATCC 6631 at 10 ug/mL after 24 hrs by disc diffusion method; assay type: functional; conditions: ATCC 6631, 24 h, read-out: IZ
Aspergillus niger [17] = test: Antifungal activity against Aspergillus niger ATCC 16404 by twofold serial dilution technique; assay type: functional
[18] = tested on: Lysinibacillus sphaericus; test: Antibacterial activity against Bacillus sphaericus ATCC 7031 at 10 ug/mL after 24 hrs by disc diffusion method; assay type: functional; conditions: ATCC 7031, 24 h, read-out: IZ
Pseudomonas aeruginosa [19] = test: Antibacterial activity against Pseudomonas aeruginosa ATCC 9027 at 10 ug/mL after 24 hrs by disc diffusion method; assay type: functional; conditions: ATCC 9027, 24 h, read-out: IZ
Bacillus subtilis [20] = test: Antibacterial activity against Bacillus subtilis ATCC 6631 by twofold serial dilution technique; assay type: functional

SMILES | MIC99 (Staphylococcus aureus [1]) | MIC99 [2] | MIC99 (Escherichia coli [3]) | zone of inhibition at 10 µg/mL (Aspergillus fumigatus [4]) | MIC99 (Candida albicans [5]) | zone of inhibition at 10 µg/mL (Staphylococcus aureus [6]) | MIC99 (Candida albicans [7]) | zone of inhibition at 10 µg/mL (Candida albicans [8]) | MIC99 (Aspergillus fumigatus [9]) | zone of inhibition at 10 µg/mL (Salmonella typhi [10]) | zone of inhibition at 10 µg/mL (Aspergillus niger [11]) | zone of inhibition at 10 µg/mL (Candida albicans [12]) | MIC99 (Salmonella typhi [13]) | zone of inhibition at 10 µg/mL (Escherichia coli [14]) | MIC99 (Pseudomonas aeruginosa [15]) | zone of inhibition at 10 µg/mL (Bacillus subtilis [16]) | MIC99 (Aspergillus niger [17]) | zone of inhibition at 10 µg/mL [18] | zone of inhibition at 10 µg/mL (Pseudomonas aeruginosa [19]) | MIC99 (Bacillus subtilis [20])
Clc1ccc(C2ONC3=C2C(c2ccccc2)N(Cc2ccccc2)C2CCCCC32)cc1 (stereo not given) | 50 µg/mL (≈ 109 µM) | 25 µg/mL (≈ 54.7 µM) | 50 µg/mL (≈ 109 µM) | 4 mm | 25 µg/mL (≈ 54.7 µM) | 14 mm | 12.5 µg/mL (≈ 27.4 µM) | 21 mm | 50 µg/mL (≈ 109 µM) | 9 mm | 16 mm | 18 mm | > 100 µg/mL | 4 mm | 25 µg/mL (≈ 54.7 µM) | 6 mm | 100 µg/mL (≈ 219 µM) | 16 mm | 5 mm | 50 µg/mL (≈ 109 µM)
c1ccc(CN2C(c3ccccc3)C3=C(NOC3c3ccco3)C3CCCCC32)cc1 (stereo not given) | 100 µg/mL (≈ 242 µM) | 50 µg/mL (≈ 121 µM) | 100 µg/mL (≈ 242 µM) | 4 mm | 100 µg/mL (≈ 242 µM) | 5 mm | 100 µg/mL (≈ 242 µM) | 12 mm | 50 µg/mL (≈ 121 µM) | 2 mm | 4 mm | 4 mm | > 100 µg/mL | 3 mm | 50 µg/mL (≈ 121 µM) | 5 mm | > 100 µg/mL | 12 mm | 4 mm | 50 µg/mL (≈ 121 µM)
c1ccc(CN2C(c3ccccc3)C3=C(NOC3c3ccc4c(c3)OCO4)C3CCCCC32)cc1 (stereo not given) | 100 µg/mL (≈ 214 µM) | 50 µg/mL (≈ 107 µM) | 50 µg/mL (≈ 107 µM) | 4 mm | 50 µg/mL (≈ 107 µM) | 8 mm | 100 µg/mL (≈ 214 µM) | 16 mm | 50 µg/mL (≈ 107 µM) | 7 mm | 11 mm | 6 mm | > 100 µg/mL | 4 mm | 25 µg/mL (≈ 53.6 µM) | 5 mm | 100 µg/mL (≈ 214 µM) | 11 mm | 5 mm | 100 µg/mL (≈ 214 µM)
c1ccc(CN2C(c3ccccc3)C3=C(NOC3c3c[nH]c4ccccc34)C3CCCCC32)cc1 (stereo not given) | 50 µg/mL (≈ 108 µM) | 100 µg/mL (≈ 217 µM) | 25 µg/mL (≈ 54.2 µM) | 5 mm | 100 µg/mL (≈ 217 µM) | 11 mm | 50 µg/mL (≈ 108 µM) | 13 mm | 25 µg/mL (≈ 54.2 µM) | 7 mm | 9 mm | 11 mm | > 100 µg/mL | 7 mm | 25 µg/mL (≈ 54.2 µM) | 3 mm | > 100 µg/mL | 6 mm | 5 mm | > 100 µg/mL
COc1ccc(C2ONC3=C2C(c2ccccc2)N(Cc2ccccc2)C2CCCCC32)cc1OC (stereo not given) | 100 µg/mL (≈ 207 µM) | 100 µg/mL (≈ 207 µM) | 50 µg/mL (≈ 104 µM) | 6 mm | 50 µg/mL (≈ 104 µM) | 9 mm | 50 µg/mL (≈ 104 µM) | 15 mm | 12.5 µg/mL (≈ 25.9 µM) | 12 mm | 14 mm | 9 mm | 100 µg/mL (≈ 207 µM) | 6 mm | 25 µg/mL (≈ 51.8 µM) | 7 mm | 100 µg/mL (≈ 207 µM) | 9 mm | 4 mm | 50 µg/mL (≈ 104 µM)
O=[N+]([O-])c1ccc(C2ONC3=C2C(c2ccccc2)N(Cc2ccccc2)C2CCCCC32)cc1 (stereo not given) | 50 µg/mL (≈ 107 µM) | 50 µg/mL (≈ 107 µM) | 50 µg/mL (≈ 107 µM) | 6 mm | 50 µg/mL (≈ 107 µM) | 11 mm | 50 µg/mL (≈ 107 µM) | 19 mm | 12.5 µg/mL (≈ 26.7 µM) | 10 mm | 13 mm | 12 mm | 100 µg/mL (≈ 214 µM) | 5 mm | 12.5 µg/mL (≈ 26.7 µM) | 4 mm | 100 µg/mL (≈ 214 µM) | 14 mm | 6 mm | 100 µg/mL (≈ 214 µM)
c1ccc(CN2C(c3ccccc3)C3=C(NOC3c3ccccn3)C3CCCCC32)cc1 (stereo not given) | 50 µg/mL (≈ 118 µM) | 25 µg/mL (≈ 59 µM) | 25 µg/mL (≈ 59 µM) | 7 mm | 50 µg/mL (≈ 118 µM) | 12 mm | 12.5 µg/mL (≈ 29.5 µM) | 18 mm | 12.5 µg/mL (≈ 29.5 µM) | 11 mm | 10 mm | 18 mm | 50 µg/mL (≈ 118 µM) | 7 mm | 12.5 µg/mL (≈ 29.5 µM) | 6 mm | 100 µg/mL (≈ 236 µM) | 16 mm | 7 mm | 50 µg/mL (≈ 118 µM)
c1ccc(CN2C(c3ccccc3)C3=C(NOC3c3cccnc3)C3CCCCC32)cc1 (stereo not given) | 50 µg/mL (≈ 118 µM) | 50 µg/mL (≈ 118 µM) | 100 µg/mL (≈ 236 µM) | 6 mm | 50 µg/mL (≈ 118 µM) | 11 mm | 12.5 µg/mL (≈ 29.5 µM) | 17 mm | 12.5 µg/mL (≈ 29.5 µM) | 11 mm | 8 mm | 17 mm | 100 µg/mL (≈ 236 µM) | 4 mm | 50 µg/mL (≈ 118 µM) | 3 mm | > 100 µg/mL | 13 mm | 4 mm | 100 µg/mL (≈ 236 µM)
